Results as given in ChEMBL document CHEMBL4507299, “Data for DCP probe PF-04554878” (2021).

What was measured:
[1] = molecular target: Mitogen-activated protein kinase 8 (Homo sapiens) (UniProt P45983)
[2] = molecular target: Phosphatidylinositol 4-kinase beta (Homo sapiens) (UniProt Q9UBF8)
[3] = molecular target: Proto-oncogene tyrosine-protein kinase ROS (Homo sapiens) (UniProt P08922)
[4] = molecular target: Serine/threonine-protein kinase Nek7 (Homo sapiens) (UniProt Q8TDX7)
[5] = molecular target: Protein-tyrosine kinase 2-beta (Homo sapiens, UniProt Q14289)
[6] = molecular target: Discoidin domain-containing receptor 2 (Homo sapiens) (UniProt Q16832)
[7] = test system: Epidermal growth factor receptor (Homo sapiens), P00533 [G719C]
[8] = molecular target: Mitogen-activated protein kinase 3 (Homo sapiens) (UniProt P27361)
[9] = molecular target: Serine/threonine-protein kinase 38 (Homo sapiens) (UniProt Q15208)
[10] = molecular target: SNF-related serine/threonine-protein kinase (Homo sapiens) (UniProt Q9NRH2)
[11] = molecular target: Calcium/calmodulin-dependent protein kinase type 1 (Homo sapiens) (UniProt Q14012)
[12] = molecular target: Serine/threonine-protein kinase mTOR (Homo sapiens) (UniProt P42345)
[13] = molecular target: Serine/threonine-protein kinase Nek3 (Homo sapiens) (UniProt P51956)
[14] = molecular target: Phosphatidylinositol 4-phosphate 5-kinase type-1 alpha (Homo sapiens) (UniProt Q99755)
[15] = molecular target: Cytoplasmic tyrosine-protein kinase BMX (Homo sapiens) (UniProt P51813)
[16] = molecular target: Calcium/calmodulin-dependent protein kinase type II subunit delta (Homo sapiens) (UniProt Q13557)
Chain of Calcium/calmodulin-dependent protein kinase type II subunit delta (Homo sapiens) (Q13557 whole entry): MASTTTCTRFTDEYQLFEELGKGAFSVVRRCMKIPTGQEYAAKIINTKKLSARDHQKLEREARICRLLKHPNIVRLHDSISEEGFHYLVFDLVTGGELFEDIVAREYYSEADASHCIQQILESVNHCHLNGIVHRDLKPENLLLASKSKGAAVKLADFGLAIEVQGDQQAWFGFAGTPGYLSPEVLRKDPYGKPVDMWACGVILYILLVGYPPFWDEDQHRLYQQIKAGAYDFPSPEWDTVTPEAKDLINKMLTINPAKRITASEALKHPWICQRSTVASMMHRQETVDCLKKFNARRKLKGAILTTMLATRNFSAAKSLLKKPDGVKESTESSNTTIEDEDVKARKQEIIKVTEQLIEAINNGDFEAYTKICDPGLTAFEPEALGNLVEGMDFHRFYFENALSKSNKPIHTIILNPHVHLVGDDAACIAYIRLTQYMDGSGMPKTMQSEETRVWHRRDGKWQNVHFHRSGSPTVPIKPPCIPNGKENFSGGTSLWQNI

[17] = molecular target: Alpha-2A adrenergic receptor (Homo sapiens) (UniProt P08913); conditions: Compound concentration 10.0 uM
[18] = molecular target: Mitogen-activated protein kinase 13 (Homo sapiens) (UniProt O15264)
[19] = molecular target: Dual specificity mitogen-activated protein kinase kinase 4 (Homo sapiens) (UniProt P45985)
[20] = molecular target: Tyrosine-protein kinase BTK (Homo sapiens) (UniProt Q06187)
[21] = molecular target: Mitogen-activated protein kinase kinase kinase 12 (Homo sapiens) (UniProt Q12852)
[22] = molecular target: Leucine-rich repeat serine/threonine-protein kinase 2 (Homo sapiens) (UniProt Q5S007)
[23] = molecular target: Tyrosine-protein kinase Fes/Fps (Homo sapiens) (UniProt P07332)
[24] = molecular target: 5-hydroxytryptamine receptor 3A (Homo sapiens) (UniProt P46098); conditions: Compound concentration 10.0 uM
[25] = molecular target: cAMP-dependent protein kinase catalytic subunit alpha (Homo sapiens) (UniProt P17612)
[26] = molecular target: Cyclin-dependent kinase 19 (Homo sapiens) (UniProt Q9BWU1)
[27] = molecular target: Tyrosine-protein kinase ZAP-70 (Homo sapiens) (UniProt P43403)
[28] = molecular target: Atypical kinase COQ8A, mitochondrial (Homo sapiens) (UniProt Q8NI60)
[29] = molecular target: G protein-coupled receptor kinase 3 (Homo sapiens) (UniProt P35626)
[30] = molecular target: Eukaryotic translation initiation factor 2-alpha kinase 1 (Homo sapiens) (UniProt Q9BQI3)
[31] = molecular target: MAP kinase-activated protein kinase 2 (Homo sapiens) (UniProt P49137)
[32] = molecular target: Aurora kinase B (Homo sapiens) (UniProt Q96GD4)
[33] = molecular target: Casein kinase I isoform gamma-1 (Homo sapiens) (UniProt Q9HCP0)
[34] = molecular target: Peripheral plasma membrane protein CASK (Homo sapiens) (UniProt O14936)
[35] = molecular target: cAMP-dependent protein kinase catalytic subunit beta (Homo sapiens) (UniProt P22694)
[36] = molecular target: Mitogen-activated protein kinase 7 (Homo sapiens) (UniProt Q13164)
[37] = molecular target: Insulin-like growth factor 1 receptor (Homo sapiens) (UniProt P08069)
Chain of Insulin-like growth factor 1 receptor (Homo sapiens) (P08069 31-736 limits assumed): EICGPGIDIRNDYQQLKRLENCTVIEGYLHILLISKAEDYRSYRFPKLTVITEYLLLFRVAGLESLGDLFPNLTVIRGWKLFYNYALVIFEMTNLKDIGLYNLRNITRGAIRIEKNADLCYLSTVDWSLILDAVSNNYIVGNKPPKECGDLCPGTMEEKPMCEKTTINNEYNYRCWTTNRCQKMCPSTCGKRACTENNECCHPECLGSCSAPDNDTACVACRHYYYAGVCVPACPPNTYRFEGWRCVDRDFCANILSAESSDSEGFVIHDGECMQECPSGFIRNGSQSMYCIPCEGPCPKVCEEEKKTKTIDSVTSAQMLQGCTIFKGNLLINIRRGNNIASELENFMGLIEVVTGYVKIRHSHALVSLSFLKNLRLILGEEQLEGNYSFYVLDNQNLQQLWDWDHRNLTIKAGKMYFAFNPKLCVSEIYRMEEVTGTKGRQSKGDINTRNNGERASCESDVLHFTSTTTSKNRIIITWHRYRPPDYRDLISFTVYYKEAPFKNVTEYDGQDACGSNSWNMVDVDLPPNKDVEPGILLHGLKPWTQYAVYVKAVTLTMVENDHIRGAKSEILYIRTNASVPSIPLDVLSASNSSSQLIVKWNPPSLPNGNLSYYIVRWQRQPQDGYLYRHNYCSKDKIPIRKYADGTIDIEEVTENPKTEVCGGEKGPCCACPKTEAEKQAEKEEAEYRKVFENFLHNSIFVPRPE
Chain of Insulin-like growth factor 1 receptor (Homo sapiens) (P08069 741-1367 limits assumed): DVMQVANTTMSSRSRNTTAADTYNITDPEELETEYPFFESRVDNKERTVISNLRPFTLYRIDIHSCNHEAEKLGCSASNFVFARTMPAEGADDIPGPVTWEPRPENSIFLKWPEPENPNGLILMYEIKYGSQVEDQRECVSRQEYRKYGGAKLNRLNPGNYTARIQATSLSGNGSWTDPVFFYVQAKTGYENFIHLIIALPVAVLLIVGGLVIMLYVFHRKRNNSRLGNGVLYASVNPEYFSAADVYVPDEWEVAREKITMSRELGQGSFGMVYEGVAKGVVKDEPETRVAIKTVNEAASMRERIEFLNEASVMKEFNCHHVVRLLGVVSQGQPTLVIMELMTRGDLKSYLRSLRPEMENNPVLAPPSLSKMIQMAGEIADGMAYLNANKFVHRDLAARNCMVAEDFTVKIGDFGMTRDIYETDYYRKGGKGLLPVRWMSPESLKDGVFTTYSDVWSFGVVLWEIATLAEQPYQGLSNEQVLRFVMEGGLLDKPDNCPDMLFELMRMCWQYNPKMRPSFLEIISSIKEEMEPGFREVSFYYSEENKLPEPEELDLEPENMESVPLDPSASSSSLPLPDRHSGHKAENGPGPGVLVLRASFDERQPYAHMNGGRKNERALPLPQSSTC

[38] = molecular target: Receptor tyrosine-protein kinase erbB-4 (Homo sapiens) (UniProt Q15303)
[39] = molecular target: Epidermal growth factor receptor (Homo sapiens) (UniProt P00533)
[40] = test system: Fibroblast growth factor receptor 3 (Homo sapiens), P22607 [G697C]
[41] = molecular target: Mitogen-activated protein kinase 9 (Homo sapiens) (UniProt P45984)
[42] = molecular target: Mitogen-activated protein kinase kinase kinase 11 (Homo sapiens) (UniProt Q16584)
[43] = molecular target: RAC-beta serine/threonine-protein kinase (Homo sapiens) (UniProt P31751)
[44] = molecular target: Ribosomal protein S6 kinase alpha-5 (Homo sapiens) (UniProt O75582)
Chain of Ribosomal protein S6 kinase alpha-5 (Homo sapiens) (O75582 whole entry, looked up): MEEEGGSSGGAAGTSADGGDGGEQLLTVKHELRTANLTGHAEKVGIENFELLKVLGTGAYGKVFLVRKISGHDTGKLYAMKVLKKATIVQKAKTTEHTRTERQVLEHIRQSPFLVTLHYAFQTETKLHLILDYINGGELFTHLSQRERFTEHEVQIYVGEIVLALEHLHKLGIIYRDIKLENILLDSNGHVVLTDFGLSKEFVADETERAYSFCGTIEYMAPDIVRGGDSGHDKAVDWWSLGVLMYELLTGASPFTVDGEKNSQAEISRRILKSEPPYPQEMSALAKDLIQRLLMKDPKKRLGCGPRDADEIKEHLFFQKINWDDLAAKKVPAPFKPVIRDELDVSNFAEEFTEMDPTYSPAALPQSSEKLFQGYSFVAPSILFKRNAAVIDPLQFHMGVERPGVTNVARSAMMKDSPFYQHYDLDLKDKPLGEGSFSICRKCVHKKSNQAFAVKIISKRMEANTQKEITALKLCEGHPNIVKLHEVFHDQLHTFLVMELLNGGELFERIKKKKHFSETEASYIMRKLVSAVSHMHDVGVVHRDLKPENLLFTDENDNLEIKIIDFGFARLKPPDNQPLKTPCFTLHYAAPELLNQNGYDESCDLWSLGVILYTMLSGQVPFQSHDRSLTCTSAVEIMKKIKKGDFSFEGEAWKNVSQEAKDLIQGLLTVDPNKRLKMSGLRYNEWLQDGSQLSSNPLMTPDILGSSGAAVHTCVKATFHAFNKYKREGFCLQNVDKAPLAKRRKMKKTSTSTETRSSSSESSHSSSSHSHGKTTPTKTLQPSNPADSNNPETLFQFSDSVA

[45] = molecular target: Rho-associated protein kinase 2 (Homo sapiens) (UniProt O75116)
[46] = Compound concentration 100.0 nM
[47] = Compound concentration 1000.0 nM

Chain of Proto-oncogene tyrosine-protein kinase ROS (Homo sapiens) (P08922 whole entry): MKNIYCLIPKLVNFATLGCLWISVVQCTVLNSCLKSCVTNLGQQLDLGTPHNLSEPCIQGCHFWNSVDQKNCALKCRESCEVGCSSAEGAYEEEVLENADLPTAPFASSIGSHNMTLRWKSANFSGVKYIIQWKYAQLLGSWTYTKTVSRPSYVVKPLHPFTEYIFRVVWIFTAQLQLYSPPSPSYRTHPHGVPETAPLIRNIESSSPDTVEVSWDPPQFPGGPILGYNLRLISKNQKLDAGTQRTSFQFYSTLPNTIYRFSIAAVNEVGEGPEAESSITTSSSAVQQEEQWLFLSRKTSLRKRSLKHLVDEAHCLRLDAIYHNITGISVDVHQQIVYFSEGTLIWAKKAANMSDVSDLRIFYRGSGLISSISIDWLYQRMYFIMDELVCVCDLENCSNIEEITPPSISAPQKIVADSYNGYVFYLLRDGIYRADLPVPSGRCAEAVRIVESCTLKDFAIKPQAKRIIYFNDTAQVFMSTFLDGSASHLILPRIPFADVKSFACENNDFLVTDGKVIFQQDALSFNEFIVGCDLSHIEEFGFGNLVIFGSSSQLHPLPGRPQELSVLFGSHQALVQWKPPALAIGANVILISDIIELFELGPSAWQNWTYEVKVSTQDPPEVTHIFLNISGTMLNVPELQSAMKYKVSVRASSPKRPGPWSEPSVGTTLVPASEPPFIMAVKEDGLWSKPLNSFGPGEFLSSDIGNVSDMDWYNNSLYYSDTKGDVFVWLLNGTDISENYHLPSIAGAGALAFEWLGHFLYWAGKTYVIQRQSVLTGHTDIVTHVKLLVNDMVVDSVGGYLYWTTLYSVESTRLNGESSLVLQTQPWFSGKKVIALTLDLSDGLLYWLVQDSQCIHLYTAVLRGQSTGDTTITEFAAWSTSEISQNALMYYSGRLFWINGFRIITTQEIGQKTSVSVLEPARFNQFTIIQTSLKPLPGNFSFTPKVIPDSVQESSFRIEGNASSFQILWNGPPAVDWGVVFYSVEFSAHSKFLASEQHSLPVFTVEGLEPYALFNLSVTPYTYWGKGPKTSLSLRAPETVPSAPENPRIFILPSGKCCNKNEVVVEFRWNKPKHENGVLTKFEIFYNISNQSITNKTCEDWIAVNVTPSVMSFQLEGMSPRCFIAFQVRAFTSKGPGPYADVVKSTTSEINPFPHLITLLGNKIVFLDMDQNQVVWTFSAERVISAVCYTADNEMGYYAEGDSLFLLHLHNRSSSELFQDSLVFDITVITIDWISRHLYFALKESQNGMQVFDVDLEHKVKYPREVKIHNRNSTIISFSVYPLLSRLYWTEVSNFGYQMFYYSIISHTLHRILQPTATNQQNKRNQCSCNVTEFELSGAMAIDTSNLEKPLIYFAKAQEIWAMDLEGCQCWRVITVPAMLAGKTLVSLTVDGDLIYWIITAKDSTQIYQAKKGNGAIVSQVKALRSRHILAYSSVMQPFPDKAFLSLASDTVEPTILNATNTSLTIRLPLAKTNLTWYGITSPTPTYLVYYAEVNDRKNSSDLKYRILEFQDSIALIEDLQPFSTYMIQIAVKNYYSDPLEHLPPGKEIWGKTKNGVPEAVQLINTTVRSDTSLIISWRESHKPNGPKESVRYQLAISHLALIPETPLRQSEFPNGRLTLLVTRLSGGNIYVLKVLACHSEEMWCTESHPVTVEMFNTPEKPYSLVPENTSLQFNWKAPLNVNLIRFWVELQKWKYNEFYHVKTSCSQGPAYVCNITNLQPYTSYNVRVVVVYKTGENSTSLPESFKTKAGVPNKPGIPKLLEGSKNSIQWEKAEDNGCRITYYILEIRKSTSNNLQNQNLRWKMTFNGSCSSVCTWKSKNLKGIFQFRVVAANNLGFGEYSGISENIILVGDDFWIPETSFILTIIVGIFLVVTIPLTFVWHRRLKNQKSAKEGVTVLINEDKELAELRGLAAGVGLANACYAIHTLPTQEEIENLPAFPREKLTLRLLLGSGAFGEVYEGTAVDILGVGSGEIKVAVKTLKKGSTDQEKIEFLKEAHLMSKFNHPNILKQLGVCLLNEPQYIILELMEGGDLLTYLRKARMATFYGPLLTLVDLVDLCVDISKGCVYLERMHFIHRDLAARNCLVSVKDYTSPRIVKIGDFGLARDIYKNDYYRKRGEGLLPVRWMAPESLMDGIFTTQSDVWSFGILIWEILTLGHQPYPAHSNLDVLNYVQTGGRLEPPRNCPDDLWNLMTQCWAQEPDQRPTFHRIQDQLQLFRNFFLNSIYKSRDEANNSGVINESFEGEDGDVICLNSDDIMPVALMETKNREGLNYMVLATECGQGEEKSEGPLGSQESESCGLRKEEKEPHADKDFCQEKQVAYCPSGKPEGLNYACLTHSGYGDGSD

CNC(=O)c1ccc(Nc2ncc(C(F)(F)F)c(NCc3nccnc3N(C)S(C)(=O)=O)n2)cc1 [DEFACTINIB]
residual activity [1, 46]: 100% | residual activity [2, 46]: 99% | residual activity [3, 46]: 58% | residual activity [4, 46]: 70% | residual activity [5, 46]: 8.3% | residual activity [6, 46]: 100% | residual activity [7, 46]: 94% | residual activity [8, 46]: 86% | residual activity [9, 46]: 86% | residual activity [10, 46]: 100% | residual activity [11, 46]: 100% | residual activity [12, 46]: 100% | residual activity [13, 46]: 100% | residual activity [14, 46]: 98% | residual activity [15, 46]: 71% | residual activity [16, 46]: 83% | inhibition [17]: 9.61% | residual activity [18, 46]: 91% | residual activity [19, 46]: 71% | residual activity [20, 46]: 83% | residual activity [21, 46]: 83% | residual activity [22, 46]: 60% | residual activity [23, 46]: 82% | inhibition [24]: 6.5% | residual activity [25, 46]: 100% | residual activity [26, 46]: 100% | residual activity [27, 46]: 100% | residual activity [28, 46]: 98% | residual activity [29, 46]: 80% | residual activity [30, 46]: 85% | residual activity [31, 46]: 100% | residual activity [32, 46]: 73% | residual activity [33, 46]: 82% | residual activity [34, 46]: 88% | residual activity [35, 46]: 93% | residual activity [36, 46]: 87% | residual activity [37, 46]: 84% | residual activity [38, 46]: 84% | residual activity [39, 46]: 88% | residual activity [40, 46]: 100% | residual activity [41, 46]: 95% | residual activity [42, 46]: 35% | residual activity [43, 46]: 77% | residual activity [44, 46]: 80% | residual activity [45, 46]: 100%

CN(c1ccnc(CNc2nc(Nc3ccc4c(c3)CC(=O)N4)ncc2C(F)(F)F)n1)S(C)(=O)=O [PF-00911705]
residual activity [1, 47]: 65% | residual activity [2, 47]: 76% | residual activity [3, 47]: 43% | residual activity [4, 47]: 68% | residual activity [5, 47]: 59% | residual activity [6, 47]: 94% | residual activity [7, 47]: 86% | residual activity [8, 47]: 96% | residual activity [9, 47]: 65% | residual activity [10, 47]: 85% | residual activity [11, 47]: 72% | residual activity [12, 47]: 94% | residual activity [13, 47]: 60% | residual activity [14, 47]: 12% | residual activity [15, 47]: 80% | residual activity [16, 47]: 100% | inhibition [17]: 0.4% | residual activity [18, 47]: 100% | residual activity [19, 47]: 23% | residual activity [20, 47]: 63% | residual activity [21, 47]: 48% | residual activity [22, 47]: 15% | residual activity [23, 47]: 74% | inhibition [24]: 1.24% | residual activity [25, 47]: 81% | residual activity [26, 47]: 84% | residual activity [27, 47]: 61% | residual activity [28, 47]: 79% | residual activity [29, 47]: 91% | residual activity [30, 47]: 87% | residual activity [31, 47]: 100% | residual activity [32, 47]: 9.9% | residual activity [33, 47]: 100% | residual activity [34, 47]: 85% | residual activity [35, 47]: 88% | residual activity [36, 47]: 78% | residual activity [37, 47]: 100% | residual activity [38, 47]: 46% | residual activity [39, 47]: 74% | residual activity [40, 47]: 89% | residual activity [41, 47]: 79% | residual activity [42, 47]: 32% | residual activity [43, 47]: 82% | residual activity [44, 47]: 78% | residual activity [45, 47]: 69%
